This is an account of results in patent US7579016B2, “Methods for repelling arthropods using isolongifolenone analogs” (The United States of America as represented by the …, priority 2007, dated 2009).

One assay deals with Aedes aegypti. The experiment in a line: in vitro K&D module mosquito biting-deterrent bioassay. The assay is classed as in vivo. The note with it: for proportion of mosquitoes not biting (biting deterrence): 3-minute exposure, 200 females, FIG. 2; for proportion of mosquitoes deterred, dose-response assay: FIG. 3. An excerpt: (§1) Mosquito Bioassay: Yellowfever mosquito, Aedes aegypti (red eye Liverpool strain) and malarial vector mosquito, Anopheles stephensi used in the study were from colonies maintained at the Walter Reed Army Institute of Research, Department of Entomology, Silver Spring, Md. The mosquitoes were reared using the procedure of Gerberg et al. (Gerberg, E. J., et al., Manual for mosquito rearing and experimental techniques, 1994, AMCA Inc., Lake Charles, La.). Larvae were fed ground tropical fish flakes (Tetramin Tropical Fish Flakes, Tetra Sales, Blacksburg, Va., wwv.tetra-fish.com). Colonies were maintained in a photoperiod of 12:12 h (L:D with lights on at 0600 h) at 27° C. and 80% RH. Adult mosquitoes were supplied with cotton pads moistened with 10% aqueous sucrose solution.
(§2) The comparative mosquito biting-deterrent activity of isolongifolenone and Deet was evaluated using the mosquitoes A. degypti and An. stephensi. Isolongifolenone was synthesized as described earlier. The well known and widely used synthetic repellent chemical Deet (McCabe, E. T., et al., J. Org. Chem., 19: 493-498 (1954)) was purchased from Morflex, Inc., Greensboro, N.C. Deet is often considered to be the best mosquito repellent ever developed (Elston, D. M., J. Am. Acad. Dermatol., 36: 644-645 (1998)) and is used as a gold standard to which new candidate repellents are compared. A comparative bioassay of the two compounds was conducted by using the in vitro K&D module bioassay system (Klun et al., 2005). The K&D in vitro assay system consists of three components: (1) A Plexiglas™ 29.7 cm×7.1 cm K&D module composed of six adjacent cells each designed to hold mosquitoes and each having a rectangular 3×4 cm floor hole that opened and closed by a sliding door. (2) A Plexiglas™ six-well 29.7 cm×7.1 cm water water-bath warmed (38° C.) reservoir with six 3×4 cm wells designed to match the sliding-door openings of the K&D module base and to contain 6 mL warmed human red blood cells. The wells were covered with a collagen membrane (the blood cell-membrane unit simulated a human host for mosquito feeding). (3) A 29.7×7.1 cm×0.4 cm Teflon® separator having six rectangular openings like the K&D module. In the study, test compounds in 95% ethanol solution were applied to 3×4 cm cloth areas marked with ink pen on a 29.7-cm×7.1 cm strip of organdy cloth. We routinely applied ethanol solutions (115 μL) 0.5 cm outside of the 3×4 marked cloth areas to ensure that mosquitoes were never exposed to any area of untreated cloth. […] The Teflon® separator was placed over the treated cloth. The function of the separator was to prevent direct contact of the K&D module with chemically treated cloth. A bioassay replicate consisted of three treatments: isolongifolenone, Deet, and 95% ethanol treated cloth as control. We used two replicates with treatments randomly positioned over the six-cells of a reservoir.
(§3) The mosquito bioassays were conducted With the in vitro K&D module systems positioned in a Purair ductless chemical fume hood (Air Science USA, LLC, Fort Myers, Fla.) from 1300-1600 h over days at 24°-26° C. and 24-51%, RH in ambient laboratory light. Mated nulliparous A. aegypti and A. stephensi (5-15 d old) were tested, and they had no water 24 h before testing. Mosquitoes were loaded into each of six adjacent K&D module cells and promptly after loading they were exposed to 2 replicates of the three treatments on the organdy cloth. Routinely, a six-celled K&D module containing five mosquitoes/cell was positioned on the Teflon® separator over air-dried cloth treatments covering the blood-membrane wells, and trap doors of the K&D modules were opened to expose-the treatments to the sets of mosquitoes. After a 3-minute exposure, the number of mosquitoes biting through cloth treatments in each cell was recorded and mosquitoes were prodded back into the cells. […]

Another assay relates to Anopheles stephensi. The description is as above. The conditions noted are these: 25 nmol/cm^2 cloth; 3-minute exposure; 200 females; FIG. 2. The format is in vivo.
Description: as §1, §2, §3

The test system of a further assay is Ixodes scapularis nymphs. The experiment in a line: fingertip tick repellency bioassay (treated cloth strip around finger). The note with it: for I. scapularis nymphs repelled: FIG. 4. The format is in vivo. An excerpt:
(§4) Tick Bioassay: Blacklegged tick (Ixodes scapularis) nymphs were reared from larvae obtained from the laboratory colony at Oklahoma State University, Stillwater, Okla., and fed on rats (Beltsville Area Animal Care and Use Committee Protocol #05-0122) at the U.S. Department of Agriculture (USDA), Agricultural Research Service (ARS), Beltsville Agricultural Research Center, Beltsville, Md. Lone star tick (Amblyomma americanum) nymphs were obtained from a colony at the USDA, ARS, Knipling-Bushland U.S. Livestock Insects Research Laboratory, Kerrville, Tex. Both species of ticks were maintained at 24° C.; ˜97% RH and 16:8 h LD until testing.
(§5) The fingertip bioassay used by Schreck et al. (Schreck, C. E., et al., J. Am. Mosq. Control Assoc., 11: 136-140 (1995)) was modified (Carroll, J. F., et al., Exp. Appl. Acarol., 41: 215-224 (2007); Carroll, J. F., et al., Med. Vet. Entomol., 19:101-106 (2005)) by applying treatments to the outer layer of a strip of cloth (organdy) later doubly wrapped around the middle phalanx of an index finger. A 7×7 […] strip of organdy cloth (G Street Fabrics, Rockville, Md.) was cut in the shape of a hockey stick (9 cm long section, 4.5 cm short section, 4-4.5 cm wide) so that when the cloth was wrapped twice around the middle phalanx of the index finger it completely covered the area between the deepest creases of the distal and middle joints of the finger of a volunteer subject. The cloth extended 5-6 mm proximally beyond the deepest crease of the middles joint and overlapped 1-3 mm. With the strip of cloth in place, the boundaries of the area to receive the repellent treatment area (between the deepest creases of the distal and middle joints) were marked on the cloth with a lead pencil. This cloth was used as a template for tracing the boundaries on other cloths.
(§6) Stoichiometrically equivalent stock 95% ethanol solutions of the compounds were prepared: 50 nmol Deet/μL and 50 nmol isolongifolenone or isolongifolenone analog/μL for use in all bioassays. The volumes of the respective solutions used to generate 155 nmole repellent doses/cm^2 cloth were based on the dimensions of the middle phalanx of the left index finger of a volunteer subject. The volume of the treated solutions required to give the desired nmoles/cm^2 cloth dosages was calculated from the average of the circumferences of the two finger joints multiplied by the distance between the deepest crease of each joint.
(§7) A repellent solution (52 μL) or ethanol (control) of the same volume was applied to the designated treatment area on the cloth and allowed to dry. As with Schreck et al. (1995), it was necessary to screen I. scapularis nymphs for active individuals. While the treated cloth dried, I. scapularis nymphs were transferred by forceps from a holding vial to a finger. Ten ticks that crawled ≧5 mm were sequestered in a Petri dish that had been glued inside a larger Petri dish with water added to the space between their sides to form a moat. After the cloth dried (10-12 min), it was wrapped twice around the index finger. To keep the cloth wrapped around the finger, three small dabs of beeswax were smeared on the upper surface of the inner layer of cloth at the edge of the overlap and pressure applied for 10 s. Using forceps, the 10 selected ticks were placed on the tip of the horizontally held finger between the nail and the edge of the cloth. When the tenth tick was placed on the finger, the finger was slowly tipped vertically with the tip downward. The locations of the ticks were recorded at 1, 3, 5, 10 and 15 min after their release on the finger. […] For both species, the finger was held over moated Petri dishes while ≧1 tick was on it. During bioassays temperatures ranged from 23°-26° C. and 10-56% RH. The repellent data were compared by paired samples t-test (SPSS 10.0 for Windows for significance at α=0.05 level, George, D., and P. Mallery, SPSS for Windows step by step: A simple guide and reference, 4th ed., 2002, Allyn & Bacon, Boston, Mass.). […]

For a further assay, the system named is mosquito. The note with it: 25 nmol compound/cm^2, applied to human skin or cloth; cited from earlier work.
Assay [1] has as its system Amblyomma americanum nymphs. Kind of assay: fingertip tick repellency bioassay (treated cloth strip around finger). The format is in vivo. The conditions noted are these: A. americanum nymphs; 155 nmol/cm^2 cloth; 10 min after release on finger.
Description: as §4, §5, §6, §7

SMILES strings stand for the structures.

Take `CCN(CC)C(=O)c1cccc(C)c1` [Deet, N,N-Diethyltoluamide, reference compound]: the “proportion of mosquitoes not biting (biting deterrence)” value with Aedes aegypti (25 nmol/cm^2 cloth) and with Anopheles stephensi was “significantly greater” each time. In addition, the “proportion of mosquitoes not biting (analog comparison)” value in the assay with Aedes aegypti (25 nmol/cm^2 cloth, 100 mosquitoes per compound, FIG. 6) is listed as “significantly greater”. The “I. scapularis nymphs repelled” value is 15% in the assay on Ixodes scapularis nymphs (19.5 nmole/cm^2 cloth), 55% in the assay on Ixodes scapularis nymphs (39 nmole/cm^2 cloth) and 100% in the assay on Ixodes scapularis nymphs (78 nmole/cm^2 cloth). In addition, the “suppression of mosquito biting compared to controls” value in the assay with mosquito is listed as “ca. 80%”.
Take `CC1(C)C2=CC(=O)CC(C)(C)[C@]23CC[C@H]1C3` [Isolongifolenone, (−)-isolongifolenone]: the “proportion of mosquitoes not biting (biting deterrence)” value in the assay on Aedes aegypti (25 nmol/cm^2 cloth) and in the assay on Anopheles stephensi was “more effectively than Deet” in each case. Moreover, the “proportion of mosquitoes deterred, dose-response assay” value with Aedes aegypti (25 nmole compound/cm^2 cloth) and in the assay on Aedes aegypti (36 nmole compound/cm^2 cloth) was “significantly greater than the proportions deterred by Deet” each time. For the same molecule, the “Proportion Repelled” value in assay [1] was 0.725; in the assay with Ixodes scapularis nymphs (I. scapularis nymphs, 155 nmol/cm^2 cloth, 10 min after release on finger), 1.0. The “I. scapularis nymphs repelled” value was determined as 35% with Ixodes scapularis nymphs (19.5 nmole/cm^2 cloth), 65% with Ixodes scapularis nymphs (39 nmole/cm^2 cloth) and 100% with Ixodes scapularis nymphs (78 nmole/cm^2 cloth).
